Where two headings read alike, the source gives them in different places.
Key:
[1] = tested on: C1 B-ALL cell line; test: Cytotoxicity assay, C1; assay type: cell-based, human; conditions: four days in culture, Alamar blue assay or automated microscopy, ± SD, three experiments
Protocol: (§1) Cell lines were cultured in Opti-MEM medium (Gibco, Life Technologies Corporation, Burlington, Ontario) supplemented with 10% heat inactivated fetal bovine serum (FBS) (Gibco), 100 units/ml penicillin and 100 units/ml streptomycin (Gibco) and 0.05 mM 2-mercaptoethanol (Sigma-Aldrich, Oakville, Ontario) in T25 flasks (Nalge Nunc, Rochester, New York) or T75 flasks (Corning Incorporated, Corning, New York). All cell cultures were maintained at 37°C in a humidified incubator with 5% CO2.
(§2) For cytotoxicity profiling of Aurora kinase inhibitors against leukemia cell lines, inhibitors or vehicle control (DMSO, Sigma-Aldrich) were diluted in 100 µl of Opti-MEM per well in 96 well plates (Grenier Bio-One, Monroe, North Carolina) in triplicate at final concentrations ranging from 1×10^−6 to 10 µM. 1×10^4 cells per well were seeded and plates were incubated for 4 days. Following incubation for 4 days, cell survival was quantified by Alamar blue assay (Invitrogen) or automated inverted microscopy using the Celigo Cell Cytometer (Cyntellect, San Diego, California). […] During this period of incubation, the absorbance at 570–620 nm was measured (Opsys MR Plate Reader, Dynex Technologies, Chantilly, Virginia) at various time points, depending on the cell line or sample. Percent survival was calculated by comparing the absorbance ratio of the test well to the control well multiplied by 100%, as indicated in the following formula: […]
(§3) For automated inverted microscopy, the number of cells in each well was determined using the direct cell counting application as described previously. Briefly, following adjustment of image acquisition settings for bright-field imaging, the wells containing cells and appropriate dilutions of inhibitors were individually scanned. Based on these images, analysis parameters, including intensity threshold and cell diameter, were modified for optimal inclusion of viable cells in treated and control wells. These parameters were applied for subsequent replicates involving the same leukemia cell line or sample. The percent survival was then calculated as a ratio of the number of cells in treated wells to the number of cells in control wells multiplied by 100%. Given that Aurora kinase inhibitors interfere with cytokinesis, cells that are committed to death may still contain enlarging but intact cytoplasmic content before the eventual loss of cytoplasmic membrane integrity. The accuracy of Alamar blue assay may be, in theory, affected by the timing of these events.

[2] = tested on: SEM B-ALL cell line; test: Cytotoxicity assay, SEM; assay type: cell-based; conditions: Homo sapiens, 96 h, four days in culture, Alamar blue assay or automated microscopy, ± SD, three experiments
Protocol: as §1, §2, §3

[3] = tested on: B1 B-ALL cell line; test: Cytotoxicity assay, B1; assay type: cell-based, human; conditions: four days in culture, Alamar blue assay or automated microscopy, ± SD, three experiments
Protocol: as §1, §2, §3

[4] = tested on: UOCB1 B-ALL cell line; test: Cytotoxicity assay, UOCB1; assay type: cell-based, human; conditions: four days in culture, Alamar blue assay or automated microscopy, ± SD, three experiments
Protocol: as §1, §2, §3

[5] = tested on: Nalm6 B-ALL cell line; test: Cytotoxicity assay, Nalm6; assay type: cell-based, human; conditions: four days in culture, Alamar blue assay or automated microscopy, ± SD, three experiments
Protocol: as §1, §2, §3

[6] = tested on: KOPN8 B-ALL cell line; test: Cytotoxicity assay, KOPN8; assay type: cell-based, human; conditions: four days in culture, Alamar blue assay or automated microscopy, ± SD, three experiments
Protocol: as §1, §2, §3

[7] = tested on: CEM T-ALL cell line; test: Cytotoxicity assay, CEM; assay type: cell-based, human; conditions: four days in culture, Alamar blue assay or automated microscopy, ± SD, three experiments
Protocol: as §1, §2, §3

[8] = tested on: Molt-3 T-ALL cell line; test: Cytotoxicity assay, Molt-3; assay type: cell-based, human; conditions: T-ALL cell line Molt-3, four days in culture, Alamar blue assay or automated microscopy, ± SD, three experiments
Protocol: as §1, §2, §3

[9] = tested on: Molm13 AML cell line; test: Cytotoxicity assay, Molm13; assay type: cell-based, human; conditions: four days in culture, Alamar blue assay or automated microscopy, ± SD, three experiments
Protocol: as §1, §2, §3

[10] = tested on: MV4-11 AML cell line; test: Cytotoxicity assay, MV4-11; assay type: cell-based, human; conditions: AML cell line MV4-11, four days in culture, Alamar blue assay or automated microscopy, ± SD, three experiments
Protocol: as §1, §2, §3

[11] = tested on: TIB-202 AML cell line; test: Cytotoxicity assay, TIB-202; assay type: cell-based, human; conditions: AML cell line TIB-202, four days in culture, Alamar blue assay or automated microscopy, ± SD, three experiments
Protocol: as §1, §2, §3

[12] = tested on: NB4 APML cell line; test: Cytotoxicity assay, NB4; assay type: cell-based, human; conditions: four days in culture, Alamar blue assay or automated microscopy, ± SD, three experiments
Protocol: as §1, §2, §3

[13] = tested on: HL-60 APML cell line; test: Cytotoxicity assay, HL-60; assay type: cell-based, human; conditions: APML cell line HL-60, four days in culture, Alamar blue assay or automated microscopy, ± SD, three experiments
Protocol: as §1, §2, §3

[14] = tested on: HL-60 RA APML cell line; test: Cytotoxicity assay, HL-60 RA; assay type: cell-based, human; conditions: APML cell line HL-60 RA, four days in culture, Alamar blue assay or automated microscopy, ± SD, three experiments
Protocol: as §1, §2, §3

[15] = tested on: Normal Lymphocytes; test: Cytotoxicity assay, normal lymphocytes; assay type: cell-based, human; conditions: normal lymphocytes (control for non-leukemia cytotoxicity), four days in culture, ± SD, three experiments
Protocol: (§4) These include B-ALL (Patient #1), relapsed AML (Patient #2), AML/CML (Patient #3), infant ALL (Patient #4), and initial ALL presenting with secondary AML (Patient #5). […] The diluted sample was then layered on a Ficoll-Paque (GE Healthcare, Piscataway, New Jersey) gradient at a 1∶2 ratio of Ficoll to diluted sample. Samples were then centrifuged 1800 rpm for 20 minutes at room temperature. The buffy coat was removed with a pipette and transferred to a new centrifuge tube and diluted with PBS. After an additional centrifugation at 1200 rpm, the white blood cell pellet was washed with PBS and centrifuged one last time. Cells were re-suspended in Opti-MEM and viable cells were counted using trypan blue (Invitrogen, Life Technologies Corporation, Burlington, Ontario) exclusion on a haemocytometer. An identical protocol was followed for the isolation of white blood cells, referred to as “normal lymphocytes” in the following paragraphs, from healthy volunteers. Samples grown in culture for up to six months were cultured in Opti-MEM medium supplemented with 10% heat inactivated FBS, penicillin/streptomycin and 2-mercaptoethanol.
as §2, §3

[16] = tested on: Bone Marrow Stroma; test: Cytotoxicity assay, bone marrow stroma; assay type: cell-based, human; conditions: bone marrow stroma (control for non-leukemia cytotoxicity), four days in culture, ± SD, three experiments
Protocol: as §2, §3

[17] = tested on: Patient #1 B-ALL primary leukemia cells; test: Cytotoxicity assay, primary sample Patient #1; assay type: cell-based, human; conditions: four days in culture, Alamar blue assay or automated microscopy, one complete study
Protocol: as §4, §2, §3

[18] = tested on: Patient #2 relapsed AML primary leukemia cells; test: Cytotoxicity assay, primary sample Patient #2; assay type: cell-based, human; conditions: four days in culture, Alamar blue assay or automated microscopy, one complete study
Protocol: as §4, §2, §3

[19] = tested on: Patient #3 AML/CML primary leukemia cells; test: Cytotoxicity assay, primary sample Patient #3; assay type: cell-based, human; conditions: four days in culture, Alamar blue assay or automated microscopy, one complete study
Protocol: as §4, §2, §3

[20] = tested on: Patient #4 infant leukemia primary cells; test: Cytotoxicity assay, primary sample Patient #4; assay type: cell-based, human; conditions: four days in culture, Alamar blue assay or automated microscopy, one complete study
Protocol: as §4, §2, §3

[21] = tested on: Patient #5 ALL/AML primary leukemia cells; test: Cytotoxicity assay, primary sample Patient #5; assay type: cell-based, human; conditions: read-out: IC50, Patient #5 ALL/AML
Protocol: as §4, §2, §3

[22] = tested on: normal cells versus leukemia cell lines; test: Comparison of cytotoxicity IC50 values, normal cells versus leukemia cell lines; assay type: cell-based, human; conditions: normal lymphocytes and bone marrow stroma versus leukemia cell lines of Table 2
Protocol: as §2, §3

[23] = tested on: Aurora-C; conditions: read-out: Targets (IC50 Value): Aurora-C; literature values; ref [10],[40],[44]–[64] as listed per inhibitor in Table 1; cited from earlier work

COc1cc(Nc2ncc3c(n2)-c2ccc(Cl)cc2C(c2c(F)cccc2OC)=NC3)ccc1C(=O)O [MLN8237]
IC50 ([1]; Homo sapiens, 96 h): 3 ± 1 nM | IC50 [2]: 4 ± 1 nM | IC50 ([3]; Homo sapiens, 96 h): 4 ± 3 nM | IC50 ([4]; Homo sapiens, UoC-B1, 96 h): 0.003 nM | IC50 ([5]; Homo sapiens, NALM-6, 96 h): 6 ± 3 nM | IC50 ([6]; Homo sapiens, KOPN-8, 96 h): 5 ± 2 nM | IC50 ([7]; Homo sapiens, 96 h): < 0.001 nM | IC50 ([8]; Homo sapiens, 96 h): < 0.001 nM | IC50 ([9]; Homo sapiens, MOLM-13, 96 h): 4 ± 2 nM | IC50 ([10]; Homo sapiens, 96 h): 4 ± 1 nM | IC50 ([11]; Homo sapiens, 96 h): 0.4 nM | IC50 ([12]; Homo sapiens, 96 h): 60 ± 8 nM | IC50 ([13]; Homo sapiens, 96 h): 9 ± 0.9 nM | IC50 ([14]; Homo sapiens, 96 h): 4 ± 2 nM | IC50 ([15]; Homo sapiens, Lymphocyte, 96 h): 5000 ± 2000 nM | IC50 ([16]; Homo sapiens, 96 h): > 10000 nM | IC50 ([17]; Homo sapiens, 96 h): 6 nM | IC50 ([18]; Homo sapiens, 96 h): 500 nM | IC50 ([19]; Homo sapiens, 96 h): 700 nM | IC50 ([20]; Homo sapiens, 96 h): 3000 nM | IC50 ([21]; Homo sapiens, 96 h, primary sample, four days in culture, Alamar blue assay or automated microscopy, one complete study): 0.1 nM | IC50 values for the normal cells compared with IC50 values for the leukemia cell lines (potential therapeutic window) [22]: higher than the IC50 values for the leukemia cell lines

O=C(Nc1cccc(Cl)c1)Nc1ncc(CCNc2ncnc3ccsc23)s1 [SNS-314]
IC50 ([1]; Homo sapiens, 96 h): < 0.001 nM | IC50 [2]: < 0.001 nM | IC50 ([3]; Homo sapiens, 96 h): < 0.001 nM | IC50 ([4]; Homo sapiens, UoC-B1, 96 h): < 0.001 nM | IC50 ([5]; Homo sapiens, NALM-6, 96 h): < 0.001 nM | IC50 ([6]; Homo sapiens, KOPN-8, 96 h): < 0.001 nM | IC50 ([7]; Homo sapiens, 96 h): < 0.001 nM | IC50 ([8]; Homo sapiens, 96 h): < 0.001 nM | IC50 ([9]; Homo sapiens, MOLM-13, 96 h): < 0.001 nM | IC50 ([10]; Homo sapiens, 96 h): < 0.001 nM | IC50 ([11]; Homo sapiens, 96 h): < 0.001 nM | IC50 ([12]; Homo sapiens, 96 h): 6 ± 4 nM | IC50 ([13]; Homo sapiens, 96 h): 0.02 nM | IC50 ([14]; Homo sapiens, 96 h): < 0.001 nM | IC50 ([15]; Homo sapiens, Lymphocyte, 96 h): 4000 ± 2000 nM | IC50 ([16]; Homo sapiens, 96 h): > 10000 nM | IC50 ([17]; Homo sapiens, 96 h): < 0.001 nM | IC50 ([18]; Homo sapiens, 96 h): 0.5 nM | IC50 ([19]; Homo sapiens, 96 h): 4000 nM | IC50 ([20]; Homo sapiens, 96 h): 8000 nM | IC50 ([21]; Homo sapiens, 96 h): < 0.001 nM | IC50 [23]: 3 nM

COc1cc2c(Nc3ccc(NC(=O)c4ccccc4)cc3)ncnc2cc1OCCCN1CCOCC1 [ZM447439]
IC50 [1]: 80 ± 20 nM | IC50 [3]: 1000 ± 50 nM | IC50 [4]: 80 ± 20 nM | IC50 [5]: 80 ± 4 nM | IC50 [6]: 100 ± 70 nM | IC50 [7]: 60 ± 30 nM | IC50 [8]: 90 ± 10 nM | IC50 [9]: 500 ± 300 nM | IC50 [10]: 200 ± 100 nM | IC50 [11]: 800 ± 100 nM | IC50 [12]: 4000 ± 2000 nM | IC50 [13]: 1000 ± 100 nM | IC50 [14]: 500 ± 300 nM | IC50 [15]: 6000 ± 800 nM | IC50 [16]: 2000 ± 400 nM | IC50 [17]: 20 nM | IC50 [18]: > 10000 nM | IC50 [19]: 10000 nM | IC50 [20]: 7000 nM | IC50 ([21]; primary sample, four days in culture, Alamar blue assay or automated microscopy, one complete study): 9 nM | IC50 values for the normal cells compared with IC50 values for the leukemia cell lines (potential therapeutic window) [22]: lower than the IC50 values for the normal cells, but not as pronounced

Source: paper PMC4105567, “Aurora Kinases as Druggable Targets in Pediatric Leukemia: Heterogeneity in Target Modulation Activities and Cytotoxicity by Diverse Novel Therapeutic Agents” (PLoS ONE, 2014)
